For one experiment, the target named is T1, hPPARγ receptor (Homo sapiens, UniProt P37231).
T1 construct: expressed in transfected cells; host or cells: CV-1 (African Green Monkey kidney, ATCC CCL-70)
T1 sequence (P37231 172-475 isoform P37231-2): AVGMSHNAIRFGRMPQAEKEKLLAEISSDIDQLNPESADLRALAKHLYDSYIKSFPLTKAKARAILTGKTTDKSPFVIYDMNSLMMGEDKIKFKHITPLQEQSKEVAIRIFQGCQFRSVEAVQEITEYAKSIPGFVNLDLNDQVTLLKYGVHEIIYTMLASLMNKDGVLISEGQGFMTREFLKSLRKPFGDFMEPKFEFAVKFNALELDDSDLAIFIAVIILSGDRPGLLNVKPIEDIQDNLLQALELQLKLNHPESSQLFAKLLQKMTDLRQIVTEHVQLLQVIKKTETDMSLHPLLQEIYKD
The experiment is described as follows: PPARγ Cell-based luciferase assay. To be noted: CV-1, read-out: agonism of the hPPARγ receptor (activation relative to full agonist rosiglitazone). The text has this: Plasmids—PCR primers containing Kpnl and BamHI restriction sites were used to amplify PPARγ ligand binding domain (LBD) fragment (172-475) from a full-length human clone. The LBD fragment was ligated into the multiple cloning site of pFA-CMV (Stratagene). The resulting construct (pFA-CMV-GAL4-hPPARγLBD carried a fusion of the LBD with the yeast-derived GAL4 DNA-binding domain under the control of the CMV immediate early promoter. Reporter construct UAStkLuc carries a single 17 bp (CGGAGTACTGTCCTCCG) upstream activating sequence (UAS), the tk minimal promoter, and the firefly luciferase gene. The integrity of each construct was confirmed by diagnostic restriction digestion and by sequencing. Plasmid DNA was prepared using Qiagen Maxi-Prep kits.
PPARγ Cell-based luciferase assay—African Green Monkey kidney cell line CV-1 (ATCC CCL-70) was maintained in Dulbecco's Modified Eagle's Medium (D-MEM) containing 10% fetal bovine serum, 2 mM glutamine, and 1% penicillin/streptomycin (pen/strep). In preparation for luciferase assays, CV-1 cells were grown in charcoal-stripped cell medium containing D-MEM/F-12 medium supplemented with 5% or 3% dextran-treated/charcoal-stripped (CS) fetal bovine serum, 2 mM glutamine, with or without 1% pen/strep, as described below. CS fetal bovine serum was purchased from Hyclone; all other cell culture reagents were from Gibco.
The luciferase protocol is a multi-day procedure. On day 1, confluent cells in maintenance medium were subcultured 1:10 into T-175 cm^2 flasks containing 50 mL of 3% CS medium with pen/strep. These flasks were allowed to incubate at 5% CO2 and 37° C. for 72 hours.
Cells were harvested by trypsinization and then transfected using FuGENE (Roche) according to the manufacturer's specifications. Briefly, each transfection contained 0.55 μg pFA_CMV_GAL4_hPPARγ_LBD plasmid, 10.9 μg UAStkLUC, and 24 μg pBluescript (carrier DNA). Plasmid DNA was mixed with FuGENE in OptiMEM-1 medium and incubated for 30 min at room temperature. During this incubation, cells were harvested into 3% CS medium without pen-strep and dispensed at 14 million cells per T-175 cm^2 flask. Transfection mixes were added to the flasks and incubated overnight at 5% CO2 and 37° C.
Transfected cells were added to 384-well plates containing pharmacological agents. Rosiglitazone standard was reconstituted in DMSO at 1 mM. For 11-point dose-response experiments, the compounds were 3-fold serially diluted in DMSO and then stamped to 384-well assay plates (NUNC, catalog #164564) at 0.5 μL/well using a Beckman FX. DMSO and agonist control compound Rosiglitazone (1 mM) were each stamped at 0.5 μL/well to columns 23 and 24, respectively, of the 384-well plates. Transfected cells were harvested in 5% CS medium with pen/strep and dispensed at 10,000 cells/well (50 μL) onto the prepared 384-well compound plates using a Titertek Multidrop. Following overnight incubation at 5% CO2 and 37° C., Steady-Glo reagent (Promega) was added to the assay plates using a Multidrop. Plates were incubated for 10 min to ensure complete cell lysis and read in a ViewLux (PerkinElmer). […] Partial agonism is defined here as 20-80% activation (relative to full agonist rosiglitazone) at concentrations of 10^−6 M or less.
On to `COCCOc1cc(Cn2c(C(=O)O)c(-c3ccc(C(C)(C)C)cc3)c3ccccc32)cc(OC(=O)N(C)C)c1` [Example 49, 1-[(3-{[(dimethylamino)carbonyl]oxy}-5-{[2-(methyloxy)ethyl]oxy}phenyl)methyl]-3-[4-(1,1-dimethylethyl)phenyl]-1H-indole-2-carboxylic acid], for which the Emax was in the range of 20 to 80%.

Still in this experiment, the particulars now being: CV-1 cells transfected with GAL4-hPPARγ LBD and UAStkLuc; at concentrations of 10^−6 M or less; read-out: agonism of the hPPARγ receptor (activation relative to full agonist rosiglitazone).
As for `CC(C)(C)c1ccc(-c2c(C(=O)O)n(Cc3cc(C(F)(F)F)cc(C(F)(F)F)c3)c3ccccc23)cc1` [Example 63, 1-{[3,5-bis(trifluoromethyl)phenyl]methyl}-3-[4-(1,1-dimethylethyl)phenyl]-1H-indole-2-carboxylic acid], the Emax is 20 to 80%.
Regarding `CC(C)(C)c1ccc(-c2c(C(=O)O)n(Cc3cccc(-c4cccc(S(C)(=O)=O)c4)c3)c3ccccc23)cc1` [Example 25, 3-[4-(1,1-dimethylethyl)phenyl]-1-{[3′-(methylsulfonyl)-3-biphenylyl]methyl}-1H-indole-2-carboxylic acid], the Emax fell in the range of 20 to 80%.
On the same count and under the same terms, the same measure for `CC(=O)N1CCN(c2cccc(Cn3c(C(=O)O)c(-c4ccc(C(C)(C)C)cc4)c4ccccc43)c2)CC1` [Example 35, 1-{[3-(4-acetyl-1-piperazinyl)phenyl]methyl}-3-[4-(1,1-dimethylethyl)phenyl]-1H-indole-2-carboxylic acid]: 20 to 80%; for `CC(C)(C)c1ccc(-c2c(C(=O)O)n(Cc3cc(OCC4CC4)cc(OCC4CC4)c3)c3ccccc23)cc1` [Example 5, 1-({3,5-bis[(cyclopropylmethyl)oxy]phenyl}methyl)-3-[4-(1,1-dimethylethyl)phenyl]-1H-indole-2-carboxylic acid]: 20 to 80%; for `COCCOC(=O)N1CCN(c2cccc(Cn3c(C(=O)O)c(-c4ccc(C(C)(C)C)cc4)c4ccccc43)c2)CC1` [Example 48, 3-[4-(1,1-dimethylethyl)phenyl]-1-({3-[4-({[2-(methyloxy)ethyl]oxy}carbonyl)-1-piperazinyl]phenyl}methyl)-1H-indole-2-carboxylic acid]: 20 to 80%.
Consider `CSc1ccc(-c2cccc(Cn3c(C(=O)O)c(-c4ccc(C(C)(C)C)cc4)c4ccccc43)c2)cc1` [Example 23, 3-[4-(1,1-dimethylethyl)phenyl]-1-{[4′-(methylthio)-3-biphenylyl]methyl}-1H-indole-2-carboxylic acid], for which the Emax was 20 to 80%.
Consider `CNC(=O)c1cccc(-c2ccc(C)c(Cn3c(C(=O)O)c(-c4ccc(C(C)(C)C)cc4)c4ccccc43)c2)c1` [Example 29, 3-[4-(1,1-dimethylethyl)phenyl]-1-({4-methyl-3′-[(methylamino)carbonyl]-3-biphenylyl}methyl)-1H-indole-2-carboxylic acid], for which the Emax is 20 to 80%.
Same read-out and setting: for `CN(C)CCOc1cc(Cn2c(C(=O)O)c(-c3ccc(C(C)(C)C)cc3)c3ccccc32)cc(OCC2CC2)c1` [Example 40, 1-[(3-[(cyclopropylmethyl)oxy]-5-{[2-(dimethylamino)ethyl]oxy}phenyl)methyl]-3-[4-(1,1-dimethylethyl)phenyl]-1H-indole-2-carboxylic acid] the value was 20 to 80%.
For the molecule `Cc1ccc(-c2cccc(C(=O)NCc3cccs3)c2)cc1Cn1c(C(=O)O)c(-c2ccc(C(C)(C)C)cc2)c2ccccc21` [Example 30, 3-[4-(1,1-dimethylethyl)phenyl]-1-[(4-methyl-3′-{[(2-thienylmethyl)amino]carbonyl}-3-biphenylyl)methyl]-1H-indole-2-carboxylic acid], the Emax lay in the range of 20 to 80%.
Regarding `COCCOc1cc(Cn2c(C(=O)O)c(Cc3cccc(C(F)(F)F)c3)c3ccccc32)cc(OCCOC)c1` [Example 58, 1-[(3,5-bis{[2-(methyloxy)ethyl]oxy}phenyl)methyl]-3-{[3-(trifluoromethyl)phenyl]methyl}-1H-indole-2-carboxylic acid], the Emax fell in the range of 20 to 80%.
With `Cc1ccc(-c2ccc(C(=O)NCc3cccs3)cc2)cc1Cn1c(C(=O)O)c(-c2ccc(C(C)(C)C)cc2)c2ccccc21` [Example 32, 3-[4-(1,1-dimethylethyl)phenyl]-1-[(4-methyl-4′-{[(2-thienylmethyl)amino]carbonyl}-3-biphenylyl)methyl]-1H-indole-2-carboxylic acid], the Emax fell in the range of 20 to 80%.
For `Cc1ccc(N2CCOCC2)cc1Cn1c(C(=O)O)c(-c2ccc(C(C)(C)C)cc2)c2ccccc21` [Example 27, 3-[4-(1,1-dimethylethyl)phenyl]-1-{[2-methyl-5-(4-morpholinyl)phenyl]methyl}-1H-indole-2-carboxylic acid], the Emax lay within 20 to 80%.
For the molecule `COc1ccc(-c2c(C(=O)O)n(Cc3cccc(-c4ccc(O)cc4)c3)c3ccccc23)cn1` [Example 16, 1-[(4′-hydroxy-3-biphenylyl)methyl]-3-[6-(methyloxy)-3-pyridinyl]-1H-indole-2-carboxylic acid], the Emax lay within 20 to 80%.
As to `CC(=O)c1ccc(-c2c(C(=O)O)n(Cc3cc(-c4ccc(C(=O)O)cc4)ccc3C)c3ccccc23)cc1` [Example 14, 3-(4-acetylphenyl)-1-[(4′-carboxy-4-methyl-3-biphenylyl)methyl]-1H-indole-2-carboxylic acid], the Emax lay in the range of 20 to 80%.
The same measure, in the same setting: the same measure for `CC(C)(C)c1ccc(-c2c(C(=O)O)n(Cc3cccc(-c4ccc(O)cc4)c3)c3ccccc23)cc1` [Example 9, 3-[4-(1,1-dimethylethyl)phenyl]-1-[(4′-hydroxy-3-biphenylyl)methyl]-1H-indole-2-carboxylic acid]: 20 to 80%; for `CC(C)(C)c1ccc(-c2c(C(=O)O)n(Cc3cc(O)cc(OCC4CC4)c3)c3ccccc23)cc1` [Example 3, 1-({3-[(cyclopropylmethyl)oxy]-5-hydroxyphenyl}methyl)-3-[4-(1,1-dimethylethyl)phenyl]-1H-indole-2-carboxylic acid]: 20 to 80%; for `CC(C)(C)c1ccc(-c2c(C(=O)O)n(Cc3cccc(N4CCOCC4)c3)c3ccccc23)cc1` [Example 26, 3-[4-(1,1-dimethylethyl)phenyl]-1-{[3-(4-morpholinyl)phenyl]methyl}-1H-indole-2-carboxylic acid]: 20 to 80%.
In the case of `CC(C)(C)c1ccc(-c2c(C(=O)O)n(Cc3cccc(N4CCN(C(N)=O)CC4)c3)c3ccccc23)cc1` [Example 37, 1-({3-[4-(aminocarbonyl)-1-piperazinyl]phenyl}methyl)-3-[4-(1,1-dimethylethyl)phenyl]-1H-indole-2-carboxylic acid], the Emax is 20 to 80%.
Same read-out and setting: for `CC(C)(C)c1ccc(-c2c(C(=O)O)n(Cc3cccc(N4CCN(S(C)(=O)=O)CC4)c3)c3ccccc23)cc1` [Example 34, 3-[4-(1,1-dimethylethyl)phenyl]-1-({3-[4-(methylsulfonyl)-1-piperazinyl]phenyl}methyl)-1H-indole-2-carboxylic acid] the value was 20 to 80%.
Same read-out and setting: for `COCCOc1cc(Cn2c(C(=O)O)c(-c3ccc(C(C)(C)C)cc3)c3ccccc32)cc(-c2ccc(C(=O)O)cc2)c1` [Example 20] the value was 20 to 80%; for `CC(C)(C)c1ccc(-c2c(C(=O)O)n(Cc3cc(OCC4CC4)cc(-c4ccc(C(=O)O)cc4)c3)c3ccccc23)cc1` [Example 15, 1-({4′-carboxy-5-[(cyclopropylmethyl)oxy]-3-biphenylyl}methyl)-3-[4-(1,1-dimethylethyl)phenyl]-1H-indole-2-carboxylic acid], 20 to 80%.
